{
  "source": "patent US9279806B2",
  "about": "“Water-soluble AIE luminogens for monitoring and retardation of fibrillation of amyloid proteins” (THE HONG KONG UNIVERSITY OF SCIENCE AND TECHNOLOGY, priority 2005, dated 2016)",
  "key": {"G-quadruplex of G1": {"system": "G-quadruplex of G1", "assay": "Isothermal titration calorimetry (ITC)", "assay_type": "binding, human", "description": "It is clear that TTAPE is highly affinitive to K^+-containing G-quadruplex but not its Na^+ cousin. Isothermal titration calorimetry (ITC) measurements are performed, in an effort to understand the thermodynamic basis for the binding affinity difference. ITC is a sensitive technique for the studies of bimolecular processes and can provide direct information about binding affinities and associated thermodynamic parameters. A calorimetric titration experiment was performed at 25.00±0.01° C. on a MicroCal VP-ITC apparatus. G1 solutions for the ITC experiments were prepared in all-potassium (K-Tris: 5 mM Tris-HCl and 150 mM KCl) or all-sodium (Na-Tris: 5 mM Tris-HCl and 150 mM NaCl) buffer at pH 7.50, as required. The buffer solution of G1 was heated to 85° C. and cooled slowly to ensure the folding of the DNA into G-quadruplex structure. For a typical titration, a series of 10 μL aliquots of TTAPE solution were injected into the G1/M^+ solution at a 240 s interval. The heat for each injection was determined by the integration of the peak area in the thermogram with respect to time. Blank titration was conducted by injecting TTAPE into the sample cell containing only buffer under the same condition. The interaction heat was corrected by subtracting the blank heat from that for the TTAPE/G1 titration. The kb values were derived by fitting the isotherm curves with Origin 5.0 software."}, "Solubility": {"assay": "Solubility", "assay_type": "physicochemical"}, "G1": {"system": "G1", "assay": "PAGE assay of G1, gel poststaining", "set-up": "species or system human", "details": "gel poststained with 10 μM TTAPE for 5 min", "description": "The FL “turn-on” switching of TTAPE by binding to G1 strand inspires us to check whether it can be used as a DNA marker in the PAGE assay. Electrophoresis assay of G1 was performed on a Hoefer miniVE system in 1xTBE buffer under nondenaturing conditions using a 20% native poly(acrylamide) gel at 100V for 3 h at […]. An AlphaDigiDoc™ system with a DE-500 MultiImage™ II light cabinet and an ML-26 UV transilluminator (Alpha Innotech) was used for data collection and analysis. The gel was poststained with a 10 μM TTAPE solution for 5 min at room temperature, rinsed with distilled water, and photographed under UV light at 290-330 nm by the gel documentation system. EB was used to poststain the gel in parallel for comparison. Concentrations of G1 in the range of 0.5-10.0 μM were used to check the visualizability of the dye-stained DNA in the PAGE assay.\nAfter running PAGE of G1 in a Tris-borate-ethylene-diaminetetraacetic acid (TBE) buffer, the gel is stained by a TTAPE solution for 5 min. […] Ethidium bromide (EB) is a widely used visualization agent for PAGE assay. […] The G1 bands are not visualized until the gel has been stained by EB for as long as 30 min. Band visualization by EB is usually realized by its intercalation into the hydrophobic region of DNA, which makes the staining a slow process. […]"}, "[1]": {"system": "ctDNA/RNA from torula yeast/BSA", "assay": "Fluorescence increments / binding isotherm with ctDNA, RNA and BSA", "details": "dye 5 μM", "description": "FIG. 8 illustrates increments of fluorescence of TPE-C2N^+ (8), N+C2-TPE-C2N^+ (9), TPE-C4N^+ (10), N+C4-TPE-C4N^+ (11) when binding with 10 μg/ml ctDNA/10 μg/ml RNA diethylaminoethanol (DEAE) salt from torula yeast/10 μg/ml RNA from torula yeast in buffer solution pH=7. Concentration of dyes: 5 μM; excitation wavelength: 350 nm. The four cationic TPE derivatives display larger FL enhancement in the presence of DNA than that of RNA.\nFIG. 9 illustrates the binding isotherm of N+C2-TPE-C2N^+ (5 μM) to ctDNA/RNA from torula yeast/BSA (plot of the fluorescence intensity at 470 nm for ctDNA/RNA, and at 467 nm for BSA) in aqueous phosphate buffer (pH=7.0)."}},
  "data": [
    {"smiles": "CC[N+](CC)(CC)CCOc1ccc(C(=C(c2ccc(OCC[N+](CC)(CC)CC)cc2)c2ccc(OCC[N+](CC)(CC)CC)cc2)c2ccc(OCC[N+](CC)(CC)CC)cc2)cc1.[Br-].[Br-].[Br-].[Br-]", "note": "[TTAPE, 1,1,2,2-tetrakis[4-(2-triethylammonioethoxy)phenyl]ethene tetrabromide]", "values": [
      {"measurement": "Gibbs energy (ΔG°)", "setting": "G-quadruplex of G1; G1/K+ buffer, 25 °C", "value": -7.3, "unit": "kcal/mol"},
      {"measurement": "Binding constant", "setting": "G-quadruplex of G1; Na+ titration (Na-Tris)", "value": "too small to be determined accurately"},
      {"measurement": "Solubility in water", "setting": "Solubility", "value": "completely soluble in water"},
      {"measurement": "Detectable G1 concentration (sensitivity test)", "setting": "G1", "value": 0.5, "unit": "µM"},
      {"measurement": "Variety of FL in presence of DNA and RNA compared with TPE-C2N+ and TPE-C4N+", "setting": "[1]; 10 μg/ml ctDNA or RNA", "value": "much larger variety of FL"},
      {"measurement": "Relative affinity to DNA, RNA and proteins", "setting": "[1]; aqueous phosphate buffer pH 7.0", "value": "larger affinity to DNA than to RNA and proteins"}
    ]}
  ]
}
